Reference: patent publication US7795305B2, “CDDO-compounds and combination therapies thereof” (Board of Regents, The University of Texas System, priority 2000, dated 2010)

Legend:
[1] = test system: CML-blast crisis samples; test: Apoptosis and differentiation in CML-blast crisis samples in vitro; assay type: cell-based, human
Excerpt: Subjects. Samples of bone marrow or peripheral blood were obtained for in vitro studies from patients with newly diagnosed or recurrent AML with high (>70%) blast count and from patients with myeloid transformation of chronic myeloid leukemia (CML). Informed consent was obtained following institutional guidelines. Mononuclear cells were separated by Ficoll-Hypaque (Sigma Chemical Co) density-gradient centrifugation.
CDDO-Me. In primary AML, CDDO-Me induced apoptotic cell death in a dose-dependent fashion as determined by DNA flow cytometry (subG1): at 1 μM CDDO-Me, apoptosis was induced in 5 of 6 AML samples in vitro, and 5 μM induced apoptosis in 6 of 6 samples. More than 90% apoptotic cells were detected in 4/6 samples following exposure to 5 μM of CDDO-Me (FIG. 21A). At lower concentrations, CDDO-Me induced a dose-dependent increase in the percentage of the apoptotic cells in 4/4 samples tested (FIG. 21B). The paired mean difference between the CDDO-Me 0.1 μM and DMSO control is 26.9%±10.8% (CDDO-Me-DMSO, mean±SEM); and the paired mean difference between the CDDO-Me 0.5 μM and DMSO is 43.2%±5.2%. […] Effects of CDDO-Me were also tested on clonogenic AML cells. […] In contrast, 79±5.6% and 63.4±1.1% CFU-GM generated from normal CD34* cells were detected after 0.1 and 0.5 μM of CDDO-Me treatment (n=3).

[2] = test system: ERK immunoprecipitated from K562 cells; test: In vitro ERK (MAPK kinase) assay, MBP phosphorylation; assay type: biochemical; settings: 0.1, 1, and 10 μM
Procedure: In vitro ERK assay. The effect of CDDO or CDDO-Me was determined using an in vitro MAPK kinase assay kit from Upstate Biotechnology (Lake Placid, N.Y.) and ERK1/2 antibody from Santa Cruz Biotechnology (Santa Cruz, Calif.). For each sample, ERK 1/2 was immunoprecipitated from 2×10^7 K562 or 1×10^7 HL60 cells using a specific anti-ERK 1/2 antibody and Protein A agarose (Life Technologies, Rockville, Md.). The ERK-containing agarose pellet was resuspended in Assay Buffer containing an inhibitor cocktail (PKC inhibitor peptide, PKA inhibitor peptide, and Compound R24571) to block possible contaminating non-ERK kinases. Where appropriate, varying concentrations (0.1, 1, and 10 μM) of CDDO or CDDO-Me was added. Dephosphorylated myelin basic protein (MBP; 25 μg) was used as substrate. Phosphorylation of MBP was observed by using an anti-phospho-MBP antibody. […] The amount of ERK2 immunoprecipitated from each sample was determined by using anti-ERK2 antibody.
To determine specific effects of CDDO-Me on ERK activity the inventors used an in vitro MAPK kinase assay kit. ERK was immunoprecipitated from K562 cells since these cells contain the Bcr-Abl kinase and activated ERK present in these cells under basal conditions.

[3] = test system: HL-60 cells; test: Apoptotic sub-G1 cells / apoptosis; assay type: cell-based, human
Procedure: (§1) Cell kinetic and DNA fragmentation studies. The cell cycle kinetics was determined by staining cells with acridine orange for cellular DNA and RNA content followed by flow cytometeric analysis as described. Samples were measured in a FACScan flow cytometer (Becton Dickinson, San Jose, Calif.) using the 488-nm line of a […] argon laser and filter settings for green (530 nm) (DNA) and red (585 nm) (RNA) fluorescence. Ten thousand events were stored in list mode for analysis. The percentage of cells in the “sub G1 peak” defined the proportion of apoptotic cells in the tested populations. […] Cell-cycle kinetics was analyzed using ModFit software (Verity Software House, Inc., Topsham, Me.).
Comparison of CDDO-compounds with other PPARγ ligands. […] In contrast, CDDO induced monocytic differentiation at 0.5 to 1.0 μM and apoptosis at 1 μM in HL-60 cells. […] These experiments will define the ability of CDDO to induce differentiation and apoptosis in comparison to other PPARγ ligands. Similar experiments are contemplated with CDDO-Me.

[4] = test system: NB4 cells; test: Annexin V staining; assay type: cell-based, human
Procedure: Annexin V staining. Cells were washed in phosphate-buffered saline (PBS) and resuspended in 100 μl of binding buffer containing Annexin V (Roche Diagnostic Corporation, Indianapolis, Ind.). Cells were analyzed by flow cytometry after the addition of propidium iodide (PI). Annexin V binds to those cells that express phosphatidylserine on the outer layer of the cell membrane, and PI stains the cellular DNA of those cells with a compromised cell membrane. This allows for live cells (unstained with either fluorochrome) to be discriminated from apoptotic cells (stained only with annexin V) and necrotic cells (stained with both annexin and PI).
Mechanisms of CDDO-induced apoptosis in leukemia cell lines and in primary AML samples were also determined. The involvement of the death receptor/Fas pathway was studied in NB4 cells. Treatment with 0.5 μM CDDO induced cell surface Fas/CD95 expression at 48 hours (MFI 34.8 vs 24.8 in DMSO-treated cells and 26 in untreated control). At this concentration, 22.3% of cells were annexin V positive compared with 11.4% in DMSO-controls. At 1 μM, 56.3% of cells were apoptotic. Similarly, 1 μM CDDO induced Fas expression in 7/12 AML CD34+ cells (MFI, 22.3±3.5 in DMSO-controls, 40±4.3 in CDDO-treated CD34+ cells, p<0.01).

[5] = test system: Bcl-2 mRNA in NB4 cells; test: Bcl-2 mRNA by quantitative TaqMan PCR; assay type: cell-based, human; settings: 72 hrs
Procedure: (§2) The effect of CDDO on the Bcl-2 mRNA expression was analyzed utilizing quantitative TaqMan PCR. In HL-60 cells, Bcl-2 mRNA decreased at 24 hrs and decreased further (>than 10-fold) at 72 hours; in NB4 cells, a small decrease of Bcl-2 mRNA (2-fold) was observed only at 72 hrs (FIG. 9).

[6] = test system: Bcl-2 mRNA in HL-60 cells; test: Bcl-2 mRNA by quantitative TaqMan PCR; assay type: cell-based, human; settings: 72 hours
Procedure: as §2

[7] = test system: U937 cells; test: Cell cycle kinetics, proliferating (S+G2M) fraction by flow cytometry; assay type: cell-based, human
Procedure: as §1
CDDO. The effect of CDDO on the survival of HL-60 and U937 leukemia cell lines is depicted in FIG. 1. A time- and dose-dependent decrease of HL-60 cells: at 48 hours, 10^−8 M, at 72 and 96 hours, 10^−9 M of CDDO reduced cell numbers by 50%. Viability of U937 cells was inhibited at 107 to 1018 at 48 hours. DNA fragmentation was measured to confirm that the cell death induced by CDDO was due to apoptosis on a sub G1 cell population by DNA/RNA flow cytometry (FIG. 2). The percentage of proliferating cells were analyzed by FCM.

[8] = test system: Bcl-2 in CD34+ cells of primary AML; test: Bcl-2 expression level in CD34+ cells of primary AML samples; assay type: cell-based, human

SMILES	CML-blast crisis samples in which apoptosis was induced ([1]; 1 μM)	CML-blast crisis samples in which apoptosis was induced ([1]; 5 μM)	MBP phosphorylation by ERK [2]	apoptotic sub-G1 cells ([3]; 1 μM, 48 hrs) [%]	concentration at which apoptosis was induced ([3]; HL-60 cells) [µM]	annexin V positive cells ([4]; 0.5 μM (11.4% in DMSO-controls)) [%]	apoptotic cells ([4]; 1 μM) [%]	decrease of Bcl-2 mRNA [5] [fold]	decrease of Bcl-2 mRNA [6] [fold]	proliferating (S+G2M) fraction ([7]; 10^−6 M) [%]	proliferating (S+G2M) fraction ([7]; 10^−7 M (DMSO-controls 23.3%)) [%]	primary AML samples with significantly decreased Bcl-2 expression level in CD34+ cells [8]
COC(=O)[C@]12CCC(C)(C)C[C@H]1[C@H]1C(=O)C=C3[C@@]4(C)C=C(C#N)C(=O)C(C)(C)[C@@H]4CC[C@@]3(C)[C@]1(C)CC2 [CDDO-Me]	3 of 4	4 of 4	inhibited MBP phosphorylation in a dose-dependent manner									
CC1(C)CCC2(C(=O)O)CCC3(C)C(C(=O)C=C4C5(C)C=C(C#N)C(=O)C(C)(C)C5CCC43C)C2C1 (stereo not drawn) [CDDO, 2-cyano-3,12-dioxoolen-1,9-dien-28-oic acid]				34.8	1	22.3	56.3	2	> 10	5.6	14.9	9 of 18
